Test results reported in patent publication US5206148A, “Method for assaying aliphatic alcohol, aliphatic aldehyde or ω-carboxylic acid derivatives thereof” (Asahi Kasei Kogyo Kabushiki Kaisha, priority 1991, dated 1993).

What was measured:
Type in all cases: biochemical, Streptomyces sp. AC 8205
ω-carboxyalcohol oxidase [1] = assay: Substrate specificity of ω-carboxyalcohol oxidase (peroxidase/4-aminoantipyrine H2O2 assay); design: Relative Activity (%): concentration or dose not given beside the values; settings: for Relative Activity (%): substrate in place of 12-hydroxydodecanoic acid, activity on 12-hydroxydodecanoic acid defined as 100, pH 7.5, 37° C., 10 mins.; for Substrate specificity: statement in words, from Table 2
Protocol: (§1) An enzyme solution (25 μl) was added to the above mixture (0.5 ml), followed by incubation at 37° C. for exactly 10 mins., whereupon sodium dodecyl sulfate (SDS) (0.5 ml) was added thereto, then absorbance at 545 nm was measured. One unit of enzyme is defined by the activity which generates 1 μmole of hydrogen peroxide per minute.
Assay method: In the assay method illustrated at item 1. hereinabove, 12-hydroxydodecanoic acid was replaced by the substrates indicated in Table 2, and the resulting relative activities were produced, defining the activity on 12-hydroxydodecanoic acid as 100.

ω-carboxyalcohol oxidase [2] = assay: Effects of reagents (detergents and metal ions) on enzyme activity; settings: None = 100
Protocol: as §1
The effects of various detergent and metal ions are shown in Table 4, in which the listed reagents show no significant effect on the enzyme. Activities of the enzyme are measured by adding each listed detergent and metal ion to the assay method described above at item 1.

ω-carboxyalcohol oxidase [3] = assay: Utilization of coenzyme (absorbance at 340 nm); settings: for A340nm: 37° C., one unit of enzyme, 12-hydroxydodecanoic acid; for Utilization of coenzyme: statement in words
Protocol: One unit of enzyme is added to the reaction mixture (2.0 ml) hereinabove and the absorbance at 340 nm and 37° C. is continuously measured.

Q: `CCCO` [H3 C--(CH2)2 --OH] was tested. Which “Relative Activity (%)” value (ω-carboxyalcohol oxidase [1]) did it give?
A: 6.6%

Q: With `[Cl-].[Na+]` [NaCl] as the compound, how does the “Relative Activity (%)” value (ω-carboxyalcohol oxidase [2]; reagent 100 mM) read?
A: 95.1%

Q: `[Cl-].[Cl-].[Mg+2]` [MgCl2] was tested. Which “Relative Activity (%)” value (ω-carboxyalcohol oxidase [2]; reagent 1 mM) did it give?
A: 98.2%

Q: How did the Substrate specificity (ω-carboxyalcohol oxidase [1]) turn out when `CCCCCCCCO` [H3 C--(CH2)7 --OH] was run?
A: has substrate specificity

Q: And the “Relative Activity (%)” value (ω-carboxyalcohol oxidase [1])?
A: 88.5%

Q: Which results are given for `CCCCCCCCCCCCO` [H3 C--(CH2)11 --OH]?
A: Substrate specificity (ω-carboxyalcohol oxidase [1]): has substrate specificity; Relative Activity (%) (ω-carboxyalcohol oxidase [1]): 86.1%

Q: For `CCO` [H3 C--CH2 --OH, ethanol], which Substrate specificity (ω-carboxyalcohol oxidase [1]) is on record?
A: no specificity

Q: What about the “Relative Activity (%)” value (ω-carboxyalcohol oxidase [1]) of the same compound?
A: 0%

Q: With `[Ca+2].[Cl-].[Cl-]` [CaCl] as the compound, how does the “Relative Activity (%)” value (ω-carboxyalcohol oxidase [2]; reagent 1 mM) read?
A: 97.0%

Q: `Cl.N` [NH4 Cl] was tested. Which “Relative Activity (%)” value (ω-carboxyalcohol oxidase [2]; reagent 100 mM) did it give?
A: 89.0%

Q: Which Substrate specificity (ω-carboxyalcohol oxidase [1]) does the source give for `O=C(O)CCCCCCCCCCCO` [HO2 C--(CH2)11 --OH, 12-hydroxydodecanoic acid] here?
A: has substrate specificity

Q: What about the “Relative Activity (%)” value (ω-carboxyalcohol oxidase [1]) of the same compound?
A: 100%

Q: `CCCCCCCCCCCCCCCCO` [H3 C--(CH2)15 --OH] was tested. Which “Relative Activity (%)” value (ω-carboxyalcohol oxidase [1]) did it give?
A: 60.2%

Q: How did the “Relative Activity (%)” value (ω-carboxyalcohol oxidase [2]; reagent 1.0%) turn out when Triton X-100 was run?
A: 93.1%

Q: `OCC(O)CO` [glycerol] was tested. Which Substrate specificity (ω-carboxyalcohol oxidase [1]) did it give?
A: no specificity

Q: And the “Relative Activity (%)” value (ω-carboxyalcohol oxidase [1])?
A: 0%

Q: How did the “Relative Activity (%)” value (ω-carboxyalcohol oxidase [1]) turn out when `CCCCO` [H3 C--(CH2)3 --OH] was run?
A: 76.1%

Q: `C[C@H](CCC(=O)O)[C@H]1CC[C@H]2[C@@H]3[C@H](O)C[C@@H]4C[C@H](O)CC[C@]4(C)[C@H]3C[C@H](O)[C@]12C` [Cholate] was tested. Which “Relative Activity (%)” value (ω-carboxyalcohol oxidase [2]; reagent 10 mM) did it give?
A: 94.9%

Q: Which “Relative Activity (%)” value (ω-carboxyalcohol oxidase [1]) does the source give for `O=C(O)CCCCCCCCCCCCCCCO` [HO2 C--(CH2)15 --OH, 16-hydroxy hexadecanoic acid] here?
A: 65.5%

Q: With `[Cl][Mn][Cl]` [MnCl2] as the compound, how does the “Relative Activity (%)” value (ω-carboxyalcohol oxidase [2]; reagent 1 mM) read?
A: 102.4%

Q: Which “Relative Activity (%)” value (ω-carboxyalcohol oxidase [1]) does the source give for `CCCCCCCCC=CCCCCCCCCO` [H3 C--(CH2)7 --CH=CH--(CH2)8 --OH] here?
A: 59.1%

Q: For `C[C@H](CCC(=O)O)[C@H]1CC[C@H]2[C@@H]3CC[C@@H]4C[C@H](O)CC[C@]4(C)[C@H]3C[C@H](O)[C@]12C` [Deoxycholate], which “Relative Activity (%)” value (ω-carboxyalcohol oxidase [2]; reagent 10 mM) is on record?
A: 94.9%

Q: `CCCCCCCCCCCCCCO` [H3 C--(CH2)13 --OH] was tested. Which “Relative Activity (%)” value (ω-carboxyalcohol oxidase [1]) did it give?
A: 76.1%

Q: Which A340nm (ω-carboxyalcohol oxidase [3]; 0 min.) does the source give for `NC(=O)c1ccc[n+]([C@@H]2O[C@H](COP(=O)([O-])OP(=O)(O)OC[C@H]3O[C@@H](n4cnc5c(N)ncnc54)[C@H](OP(=O)(O)O)[C@@H]3O)[C@@H](O)[C@H]2O)c1` [NADP] here?
A: 0.046

Q: And the A340nm (ω-carboxyalcohol oxidase [3]; 2 mins.)?
A: 0.047

Q: And the A340nm (ω-carboxyalcohol oxidase [3]; 4 mins.)?
A: 0.045

Q: What about the A340nm (ω-carboxyalcohol oxidase [3]; 6 mins.) of the same compound?
A: 0.046

Q: What about the A340nm (ω-carboxyalcohol oxidase [3]; 8 mins.) of the same compound?
A: 0.046

Q: And the A340nm (ω-carboxyalcohol oxidase [3]; 10 mins.)?
A: 0.047

Q: And the Utilization of coenzyme (ω-carboxyalcohol oxidase [3])?
A: No utilization

Q: What does the source list for `CO` [H3 C--OH, methanol]?
A: Substrate specificity (ω-carboxyalcohol oxidase [1]): no specificity; Relative Activity (%) (ω-carboxyalcohol oxidase [1]): 0%

Q: `CCCCCCO` [H3 C--(CH2)5 --OH] was tested. Which Substrate specificity (ω-carboxyalcohol oxidase [1]) did it give?
A: has substrate specificity

Q: What about the “Relative Activity (%)” value (ω-carboxyalcohol oxidase [1]) of the same compound?
A: 88.5%

Q: Which results are given for `CCCCCCCCCCO` [H3 C--(CH2)9 --OH]?
A: Substrate specificity (ω-carboxyalcohol oxidase [1]): has substrate specificity; Relative Activity (%) (ω-carboxyalcohol oxidase [1]): 87.6%

Q: How did the “Relative Activity (%)” value (ω-carboxyalcohol oxidase [2]; reagent 100 mM) turn out when `[Cl-].[K+]` [KCl] was run?
A: 97.6%

Q: `NC(=O)c1ccc[n+]([C@@H]2O[C@H](COP(=O)([O-])OP(=O)(O)OC[C@H]3O[C@@H](n4cnc5c(N)ncnc54)[C@H](O)[C@@H]3O)[C@@H](O)[C@H]2O)c1` [NAD] was tested. Which A340nm (ω-carboxyalcohol oxidase [3]; 0 min.) did it give?
A: 0.062

Q: What about the A340nm (ω-carboxyalcohol oxidase [3]; 2 mins.) of the same compound?
A: 0.061

Q: What about the A340nm (ω-carboxyalcohol oxidase [3]; 4 mins.) of the same compound?
A: 0.060

Q: What about the A340nm (ω-carboxyalcohol oxidase [3]; 6 mins.) of the same compound?
A: 0.062

Q: And the A340nm (ω-carboxyalcohol oxidase [3]; 8 mins.)?
A: 0.061

Q: And the A340nm (ω-carboxyalcohol oxidase [3]; 10 mins.)?
A: 0.061

Q: What about the Utilization of coenzyme (ω-carboxyalcohol oxidase [3]) of the same compound?
A: No utilization
